Experimental data: patent publication US20060275268A1, “COMPOSITIONS FOR ACTIVATING THE INFILTRATION ACTIVITY OF DENDRITIC CELLS, AND IMMUNOPOTENTIATING AGENTS” (priority 2003, published 2006)

Legend:
dendritic cells = assay: Infiltration activity of dendritic cells by the Transwell Chamber method (Matrigel); assay type: cell-based, human; conditions: for infiltration activity of immature and mature dendritic cells: 10 ng/ml added, FIG. 8
Description: Peripheral blood mononuclear cells (PBMCs) from healthy subjects were separated by Ficoll-Paque density gradient centrifugation. Peripheral blood mononuclear cells were dispersed at a cell density of 2×10^6 cells/ml in complete RPMI-1640e medium, and the resulting suspension is incubated at 37° C. for one hour to give adhesive cells. Nonadhesive cells were removed by washing five times with RPMI-1640 medium. The adhesive cells were cultured in RPMI medium containing 1000 U/ml GM-CSF and 1000 U/ml IL-4, 10% FBS, 25 mM HEPES, 2 mM L-glutamic acid, 50 μM 2-ME, 1% nonessential amino acids, and 2 mM sodium pyruvate under hypoxic conditions (oxygen concentration was 1%; herein, hypoxic conditions refer to conditions where the oxygen concentration is 1%) or normoxic conditions (oxygen concentration was 20%; herein, normoxic conditions refer to conditions where the oxygen concentration is 20%) at 37° C. under an 5% carbon dioxide atmosphere for six days with half of the medium being changed every day. On day six, the cells were collected and divided into two groups. The first group was cultured in a medium containing IL-4 and GM-CSF for one day, and then used as immature dendritic cells. […]
The infiltration activity of dendritic cells was measured by the Transwell Chamber method using the following procedure: a Matrigel was immobilized onto a membrane that separates a top chamber and a bottom chamber; after washing, dendritic cells were placed in the top chamber; 100 ng/ml recombinant human RANTES was placed in the bottom chamber when immature dendritic cells were used, or 100 ng/ml recombinant human MCP-3 was placed in the bottom chamber when mature dendritic cells were used; cells migrating into the bottom chamber were counted. […]
The mature dendritic cells obtained in Example 1 were cultured in the culture medium supplemented with 1 μM all-trans retinoic acid to induce their differentiation. Then, the infiltration activity of dendritic cells was determined by the same procedure described in Example 7.

MMP-9 mRNA = MMP-9 mRNA level in mature dendritic cells after induction of differentiation; assay type: cell-based, human; conditions: medium with 1 μM for three days, or 5 μM for one day then 1 μM for two days, FIG. 9
Description: Total RNA was isolated from the cultured cells (1×10^6 cells) using TRIzol reagent (Life Technologies). Each RNA sample (2 μg) was converted to cDNA in 50 μl of reaction mixture containing 75 mM KCl, 50 mM Tris-HCl (pH 8.3), 3 mM MgCl2, 10 mM dithiothreitol, 0.5 mM each of dNTPs, 2 μM random primer, and 1000 U of TaqMan Reverse Transcription reagent. Each cDNA (10 ng) was amplified in triplicate using an SYBR-Green PCR assay kit, and sequenced using an ABI PRISM 7900HT sequence Detection System. PCR was carried out by incubation at 50° C. for 2 minutes and then at 95° C. for 15 minutes, followed by 15 cycles of denaturation at 95° C., 30 cycles of annealing at 60° C., and extension at 72° C. for 1 minute. […] The mature dendritic cells obtained in Example 1 were cultured in the culture medium supplemented with 1 μM all-trans retinoic acid for three days or in the culture medium supplemented with 5 μM all-trans retinoic acid for one day. The cells were further cultured in the culture medium supplemented with 1 μM all-trans retinoic acid for two days, to induce the differentiation of the dendritic cells. After the induction of the differentiation, MMP-9 mRNA level in the cells was determined.

Row | Compound | infiltration activity of dendritic cells (dendritic cells; mature dendritic cells differentiated under hypoxic conditions, 1 μM in culture medium, FIG. 10) | MMP-9 mRNA level in the cells (MMP-9 mRNA) | infiltration activity of immature and mature dendritic cells (dendritic cells; cells differentiated under hypoxic conditions) | infiltration activity of immature and mature dendritic cells (dendritic cells; cells differentiated under normoxic conditions)
1 | CC1=C(/C=C/C(C)=C/C=C/C(C)=C/C(=O)O)C(C)(C)CCC1 [all-trans retinoic acid] | increased | increased |  | 
2 | TIMP-1 protein: TIMP-1 is an MMP-9-specific inhibitor; protein added at 10 ng/ml |  |  | not changed | reduced
